Where two headings read alike, the source gives them in different places.
Columns and labels:
MCF-7 = assay: MTT cytotoxicity assay, MCF-7; format: cell-based; details: Homo sapiens
HCT-116 = assay: MTT cytotoxicity assay, HCT-116; format: cell-based; details: Homo sapiens
WRL-68 = assay: cells; format: cell-based; details: for IC50: Homo sapiens; for toxicity against normal cell line: WRL-68, result in words
HepG2 = assay: MTT cytotoxicity assay, HepG2; format: cell-based, human
PC3 cells = details: read-out: IC50 proliferation rate of PC3 cells; cited from earlier work
[1] = MCF7, 48 h, read-out: IC50 against MCF-7 μM 48 h
[2] = MCF7, 72 h, read-out: IC50 against MCF-7 μM 72 h
[3] = HCT-116, 48 h, read-out: IC50 against HCT-116 μM 48 h
[4] = HCT-116, 72 h, read-out: IC50 against HCT-116 μM 72 h
[5] = WRL68, 48 h, read-out: IC50 against WRL-68 μM 48 h
[6] = WRL68, 72 h, read-out: IC50 against WRL-68 μM 72 h
[7] = Homo sapiens, HepG2, 48 h, read-out: IC50 against HepG2 μM 48 h, MTT, 48 h
[8] = Homo sapiens, HepG2, 72 h, read-out: IC50 against HepG2 μM 72 h, MTT, 72 h

Compound	IC50 (WRL-68; [5]) [µM]	IC50 (WRL-68; [6]) [µM]	IC50 (MCF-7; [1]) [µM]	IC50 (MCF-7; [2]) [µM]	IC50 (HCT-116; [3]) [µM]	IC50 (HCT-116; [4]) [µM]	IC50 (HepG2; [7]) [µM]	IC50 (HepG2; [8]) [µM]	toxicity against normal cell line (WRL-68)	IC50 (PC3 cells) [µM]	IC50 (HepG2; read-out: IC50 against HepG2 μM 72 h, MTT, 72 h) [µM]
O=C(Cn1cc(COc2nc(-c3ccc(Cl)cc3)nc3ccccc23)nn1)Nc1ccc(Br)cc1 [Compound 8h, N-(4-bromophenyl)-2-(4-(((2-(4-chlorophenyl)quinazolin-4-yl)oxy)methyl)-1H-1,2,3-triazol-1-yl)acetamide]	115	89.5	34.1	20.6	42.3	41.8	90.5	8.55	–	–	–
COc1ccc(-c2nc(OCc3cn(CC(=O)Nc4ccc([N+](=O)[O-])cc4C)nn3)c3ccccc3n2)cc1 [Compound 8f, 2-(4-(((2-(4-methoxyphenyl)quinazolin-4-yl)oxy)methyl)-1H-1,2,3-triazol-1-yl)-N-(2-methyl-4-nitrophenyl)acetamide]	100	90.3	21.3	18	36.2	23.9	26.1	9.15	limited toxicity	–	–
CNC(=O)c1cc(Oc2ccc(NC(=O)Nc3ccc(Cl)c(C(F)(F)F)c3)cc2)ccn1 [sorafenib]	–	–	–	–	–	–	–	–	–	17.3	–
COc1cccc2c1C(=O)c1c(O)c3c(c(O)c1C2=O)C[C@@](O)(C(=O)CO)C[C@@H]3O[C@H]1C[C@H](N)[C@H](O)[C@H](C)O1 [Doxorubicin, reference compound]	2.19	1.73	–	–	–	1.21	1.96	1.31	–	–	–
COc1ccc(-c2nc(OCc3cn(CC(=O)Nc4ccc(C)cc4)nn3)c3ccccc3n2)cc1 [Compound 8d, 2-(4-(((2-(4-methoxyphenyl)quinazolin-4-yl)oxy)methyl)-1H-1,2,3-triazol-1-yl)-N-(p-tolyl)acetamide]	113	83.5	39.9	20	30.1	8.97	59.2	15	–	–	–
COc1ccc(-c2nc(OCc3cn(CC(=O)Nc4ccc(Br)cc4)nn3)c3ccccc3n2)cc1 [Compound 8c, N-(4-bromophenyl)-2-(4-(((2-(4-methoxyphenyl)quinazolin-4-yl)oxy)methyl)-1H-1,2,3-triazol-1-yl)acetamide]	106	74.4	111	62.2	47.8	12.2	30.4	13	–	–	–
Cc1ccc(NC(=O)Cn2cc(COc3nc(-c4ccc(Cl)cc4)nc4ccccc34)nn2)cc1 [Compound 8i, 2-(4-(((2-(4-chlorophenyl)quinazolin-4-yl)oxy)methyl)-1H-1,2,3-triazol-1-yl)-N-(p-tolyl)acetamide]	117	86.4	221	97	48.1	24.2	55.1	10.9	–	–	–
COc1ccc(-c2nc(OCc3cn(CC(=O)Nc4ccc(Cl)cc4)nn3)c3ccccc3n2)cc1 [Compound 8b, N-(4-chlorophenyl)-2-(4-(((2-(4-methoxyphenyl)quinazolin-4-yl)oxy)methyl)-1H-1,2,3-triazol-1-yl)acetamide]	108	89.8	25.9	20.9	77.1	68.6	78.9	19.8	–	–	–

The remaining compounds from weak to strong by IC50 (WRL-68; [5]), led by results:

IC50 (WRL-68; [5]) [µM]	IC50 (WRL-68; [6]) [µM]	Compound	IC50 (MCF-7; [1]) [µM]	IC50 (MCF-7; [2]) [µM]	IC50 (HCT-116; [3]) [µM]	IC50 (HCT-116; [4]) [µM]	IC50 (HepG2; [7]) [µM]	IC50 (HepG2; [8]) [µM]	toxicity against normal cell line (WRL-68)	IC50 (PC3 cells) [µM]	IC50 (HepG2; read-out: IC50 against HepG2 μM 72 h, MTT, 72 h) [µM]
117	84.4	COc1cc(-c2nc(OCc3cn(CC(=O)Nc4ccccc4)nn3)c3ccccc3n2)cc(OC)c1OC [Compound 8k, N-phenyl-2-(4-(((2-(3,4,5-trimethoxyphenyl)quinazolin-4-yl)oxy)methyl)-1H-1,2,3-triazol-1-yl)acetamide]	24.2	11.3	69	41.1	72.4	16.2	–	–	–
112	94.1	COc1ccc(-c2nc(OCc3cn(CC(=O)Nc4ccccc4)nn3)c3ccccc3n2)cc1 [Compound 8a, 2-(4-(((2-(4-methoxyphenyl)quinazolin-4-yl)oxy)methyl)-1H-1,2,3-triazol-1-yl)-N-phenylacetamide]	38.1	13	10.7	5.33	17.5	7.94	limited toxicity	–	–
112	–	COc1ccc(-c2nc(OCc3cn(CC(=O)Nc4cccc(OC)c4)nn3)c3ccccc3n2)cc1 [Compound 8e, N-(3-methoxyphenyl)-2-(4-(((2-(4-methoxyphenyl)quinazolin-4-yl)oxy)methyl)-1H-1,2,3-triazol-1-yl)acetamide]	35.2	23	160	90.6	46	10.2	–	–	–
110	78.6	O=C(Cn1cc(COc2nc(-c3ccc(Cl)cc3)nc3ccccc23)nn1)Nc1cccc(Br)c1 [Compound 8j, N-(3-bromophenyl)-2-(4-(((2-(4-chlorophenyl)quinazolin-4-yl)oxy)methyl)-1H-1,2,3-triazol-1-yl)acetamide]	164	55.8	176	54.2	55.8	8.55	–	–	12.7
103	85.1	O=C(Cn1cc(COc2nc(-c3ccc(Cl)cc3)nc3ccccc23)nn1)Nc1ccccc1 [Compound 8g, 2-(4-(((2-(4-chlorophenyl)quinazolin-4-yl)oxy)methyl)-1H-1,2,3-triazol-1-yl)-N-phenylacetamide]	67.2	20.9	49.2	24.5	38.8	13.2	–	–	–
101	71.3	COc1cc(-c2nc(OCc3cn(CC(=O)Nc4ccc(C)cc4)nn3)c3ccccc3n2)cc(OC)c1OC [Compound 8l, N-(p-tolyl)-2-(4-(((2-(3,4,5-trimethoxyphenyl)quinazolin-4-yl)oxy)methyl)-1H-1,2,3-triazol-1-yl)acetamide]	28.8	26.5	64.3	29.4	41.4	–	–	–	–
